Laboratory results from patent publication US4005214A (Hoffmann-La Roche Inc., priority 1974, dated 1977).
Counter-ions that a name gives are not always drawn.

Columns and labels:
[1] = pH of about 9; cited from earlier work
[2] = acute toxicity in mice (LD 50); type: in vivo; conditions: mouse, in vivo, iv, intravenous administration, read-out: LD 50 (Lethal Dose) i.v.
mice = assay: acute toxicity in mice (LD 50); type: in vivo; conditions: for LD 50 (Lethal Dose) s.c.: subcutaneous administration
Escherichia coli = assay: activity (CD 50) against Escherichia coli upon subcutaneous administration to mice; type: in vivo

In the case of CC1(C)S[C@@H]2[C@H](NC(=O)[C@H](N)c3ccc(O)cc3)C(=O)N2[C@H]1C(=O)O [Amoxicillin, D-(-)-alpha-amino-parahydroxybenzyl penicillin], the “stability at high pH” value [1] is listed as “very unstable”.
With CC1(C)S[C@@H]2[C@H](NC(=O)[C@H](N)c3ccc(O)cc3)C(=O)N2[C@H]1C(=O)O [X, choline salt of amoxicillin] the LD50 [2] was 250 to 500 mg/kg, the “LD 50 (Lethal Dose) s.c.” value (mice) was 2000 to 4000 mg/kg and the ED50 (Escherichia coli; sc, read-out: CD 50 (Curative Dose)) was 5.9 mg/kg.
With CC1(C)S[C@@H]2[C@H](NC(=O)[C@H](N)c3ccc(O)cc3)C(=O)N2[C@H]1C(=O)O [Y, N-methyl-D-glucamine salt of amoxicillin] the “LD 50 (Lethal Dose) i.v.” value (mice; intravenous administration) was 500 to 1000 mg/kg, the “LD 50 (Lethal Dose) s.c.” value (mice) was greater than 5000 mg/kg and the “CD 50 (Curative Dose)” value (Escherichia coli) was 5.0 mg/kg.
